Patent publication US5985908A, “MCBI analogs of CC-1065 and the duocarmycins” (The Scripps Research Institute, priority 1998, dated 1999)

How the values were obtained:
[1] = system: w794 DNA (SV40 DNA fragment, 144 bp); experiment: DNA alkylation, thermally-induced strand cleavage of w794 DNA; type: biochemical; conditions: for selectivity and efficiency of DNA alkylation, unnatural enantiomers compared: 72 hours, pairwise comparison; for concentration of detectable DNA alkylation, natural enantiomers: w794, 25° C., 24 hours (FIG. 17)
Description: FIG. 13 illustrates thermally-induced strand cleavage of double-stranded DNA (SV40 DNA fragment, 144 bp, nucleotide no. 5238-138, clone w794) after 72 hours incubation of agent-DNA at 37° C. followed by removal of unbound agent and 30 minutes incubation at 100° C.; 8% denaturing PAGE and autoradiography. Lane 1, control DNA; lanes 2-4, (-)-MCBI-TMI (254, 1×10^-5 to 1×10^-7 M); lanes 5-7, (-)-duocarmycin SA (2, 1×10^-5 to 1×10^-7 M); lanes 8-11, Sanger G, C, A and T reactions; lanes 12-14, (-)-CC-1065 (1, 1×10^-5 to 1×10^-7 M); lanes 15-17, (-)-MCBI-CDPI2 (266, 1×10^-5 to 1×10^-7 M); lanes 18-20, (-)-MCBI-CDPI1 (262, 1×10^-5 to 1×10^-7 M); lanes 21-23 (-)-MCBI-indole2 (258, 1×10^-5 to 1×10^-7 M).
As indicated, the DNA-agent incubation was conducted at 37° C. for 24 or 48 hours, followed by removal of unbound agent and 30 minutes incubation at 100° C.; 8% denaturing PAGE and autoradiography.
FIG. 17 illustrates thermally-induced strand cleavage of double-stranded DNA (SV40 DNA fragment, 144 bp, nucleotide no. 5238-138, clone w794) after 24 hours incubation of agent-DNA at 25° C. followed by removal of unbound agent and 30 minutes incubation at 100° C; 8% denaturing PAGE and autoradiography. Lane 1, control DNA; lanes 2-4, (+)-duocarmycin SA (2, 1×10^-5 to 1×10^-7 M); lanes 5-7, (+)-MCBI-TMI (254, 1×10^-5 to 1×10^-7 M); lanes 8-11, Sanger G, C, A and T reactions; lanes 12-14, (+)-CC-1065 (1, 1×10^-5 to 1×10^-7 M); lanes 15-17, (+)-MCBI-indole2 (258, 1×10^-5 to 1×10^-7 M); lanes 18-20, (+)-MCBI-CDPI2 (266, 1×10^-5 to 1×10^-7 M).
The DNA alkylation properties of the agents were examined within four 150 base-pair segments of duplex DNA for which comparative results are available for related agents. Four clones of phage M13mp10 were selected for study and contain the SV40 nucleosomal DNA inserts w794 (nucleotide no. 5238-138) and its complement w836 (nucleotide no. 5189-91) and c988 (nucleotide no. 4359-4210) and its complement c820 (nucleotide no. 4201-4356). The alkylation site identification and the assessment of the relative selectivity among the available sites were obtained by thermally-induced strand cleavage of the singly 5'end-labeled duplex DNA after exposure to the agents. Following treatment of the end-labeled duplex DNA with a range of agent concentrations, the unbound agent was removed by EtOH precipitation of the DNA. Redissolution of the DNA in aqueous buffer, thermolysis (100° C., 30 minutes) to induce strand cleavage at the sites of DNA alkylation, denaturing high resolution polyacrylamide gel electrophoresis (PAGE) adjacent to Sanger dideoxynucleotide sequencing standards, and autoradiography led to identification of the DNA cleavage and alkylation sites. The full details of this procedure have been disclosed and discussed elsewhere (10). The DNA alkylation reaction selectivities observed under the incubation conditions of 25° C. (24 hours) for the agents detailed herein have proven identical to the alkylation selectivities observed with shorter or extended reaction periods or when the reactions were conducted at different temperatures (37 or 4° C., 0.5-7 days). As discussed below, the rates and efficiencies but not final relative efficiencies of DNA alkylation were altered by changing the reaction temperatures.

L1210 = experiment: In vitro cytotoxic activity; type: cell-based; conditions: for enantiomer distinction (in words): natural vs unnatural enantiomer; for cytotoxic activity of seco precursor vs cyclopropane containing agent: seco precursors

SMILES	selectivity and efficiency of DNA alkylation, unnatural enantiomers compared ([1]; 37° C.)	cytotoxic activity of seco precursor vs cyclopropane containing agent (L1210)	further results
COC(=O)c1cc2c([nH]1)C(=O)C=C1N(C(=O)c3cc4cc(OC)c(OC)c(OC)c4[nH]3)CC3CC123 (single isomer, unassigned) [ent-(-)-duocarmycin SA, reference compound]	slightly more effective		
COc1ccc2c(c1)[C@@]13C[C@@H]1CN(C(=O)c1cc4c5c(ccc4[nH]1)N(C(=O)c1cc4c6c(ccc4[nH]1)N(C(N)=O)CC6)CC5)C3=CC2=O [(+)-MCBI-CDPI2]			selectivity and efficiency of DNA alkylation, natural enantiomers compared ([1]; 25° C., 24 hours, 254 vs 2, 266 vs 1): essentially indistinguishable; concentration of detectable DNA alkylation, natural enantiomers [1]: 10^-7 M
COc1ccc2c(c1)[C@@]13C[C@@H]1CN(C(=O)c1cc4cc(NC(=O)c5cc6ccccc6[nH]5)ccc4[nH]1)C3=CC2=O [(+)-MCBI-indole2]			concentration of detectable DNA alkylation, natural enantiomers [1]: 10^-7 M
COc1ccc2c(c1)[C@@]13C[C@@H]1CN(C(=O)OC(C)(C)C)C3=CC2=O [(+)-N-BOC-MCBI, N-(tert-Butyloxycarbonyl)-7-methoxy-1,2,9,9a-tetrahydrocyclopropa[c]benz[e]indol-4-one]			enantiomer distinction (in words) (L1210): more potent activity; relative efficiency of DNA alkylation, natural/unnatural enantiomer ([1]; (+)-N-BOC-MCBI/ent-(-)-N-BOC-MCBI, 37° C.): 1-2 ×
COc1ccc2c(c1)[C@]13C[C@H]1CN(C(=O)c1cc4c5c(ccc4[nH]1)N(C(N)=O)CC5)C3=CC2=O [(-)-MCBI-CDPI1]	nearly indistinguishable		
COc1ccc2c(c1)[C@]13C[C@H]1CN(C(=O)c1cc4c5c(ccc4[nH]1)N(C(=O)c1cc4c6c(ccc4[nH]1)N(C(N)=O)CC6)CC5)C3=CC2=O [(-)-MCBI-CDPI2]	nearly indistinguishable		
COc1ccc2c(c1)[C@]13C[C@H]1CN(C(=O)c1cc4cc(OC)c(OC)c(OC)c4[nH]1)C3=CC2=O [(-)-MCBI-TMI]	nearly indistinguishable		
COc1ccc2c(c1)[C@]13C[C@H]1CN(C(=O)c1cc4cc(NC(=O)c5cc6ccccc6[nH]5)ccc4[nH]1)C3=CC2=O [(-)-MCBI-indole2]	nearly indistinguishable		
NC(=O)N1CCc2c1ccc1[nH]c(C(=O)N3CCc4c3ccc3[nH]c(C(=O)N5CC6CC67C5=CC(=O)c5ccccc57)cc43)cc21 (centres unmarked) [CBI-CDPI2, reference compound]			enantiomer distinction (in words) (L1210): comparable potencies
COc1ccc2c(O)cc3c(c2c1)C(CCl)CN3C(=O)OC(C)(C)C (centres unmarked) [Compound 236, 3-(tert-Butyloxycarbonyl)-1-(chloromethyl)-5-hydroxy-8-methoxy-1,2-dihydro-3H-benz[e]indole]		indistinguishable	
COc1ccc2c(O)cc3c(c2c1)C(CCl)CN3C(=O)c1cc2cc(OC)c(OC)c(OC)c2[nH]1 (centres unmarked) [Compound 252]		indistinguishable	
COc1ccc2c(O)cc3c(c2c1)C(CCl)CN3C(=O)c1cc2cc(NC(=O)c3cc4ccccc4[nH]3)ccc2[nH]1 (centres unmarked) [Compound 256]		indistinguishable	
COc1ccc2c(c1)C13CC1CN(C(=O)c1cc4cc(NC(=O)c5cc6ccccc6[nH]5)ccc4[nH]1)C3=CC2=O (centres unmarked) [Compound 258]			cytotoxic potency of natural enantiomer relative to unnatural enantiomer (L1210; fold, natural more potent than unnatural): 1-3 ×; enantiomer distinction (in words) (L1210): nearly equipotent; concentration of detectable DNA alkylation, unnatural enantiomers ([1]; w794, 37° C., 72 hours (FIG. 13)): 10^-6 to 10^-7 M
COc1ccc2c(O)cc3c(c2c1)C(CCl)CN3C(=O)c1cc2c3c(ccc2[nH]1)N(C(N)=O)CC3 (centres unmarked) [Compound 260]		indistinguishable	
COc1ccc2c(O)cc3c(c2c1)C(CCl)CN3C(=O)c1cc2c3c(ccc2[nH]1)N(C(=O)c1cc2c4c(ccc2[nH]1)N(C(N)=O)CC4)CC3 (centres unmarked) [Compound 264]		indistinguishable	
COc1c(O)c2c(c3cc(C(=O)N4CCc5c4c(O)c(OC)c4[nH]c(C(=O)N6CC7CC78C6=CC(=O)c6[nH]cc(C)c68)cc54)[nH]c13)CCN2C(N)=O (stereo not drawn) [ent-(-)-CC-1065, reference compound]	nearly indistinguishable		
